Experimental data from US8586591B2, “Aminopyrazine derivative and medicine” (Nippon Shinyaku Co., Ltd., priority 2009, dated 2013).
Structures can show the parent of a compound that is named as a salt.

Assays:
JAK2 tyrosine kinase = biological target: T1, JAK2 tyrosine kinase (Homo sapiens, UniProt O60674); assay: Test 1: inhibitory activity to JAK2 tyrosine kinase (ELISA); type: biochemical; details: 25 μM ATP in substrate solution, 30° C. for 1 hour, n=2
T1 construct: purchased Carnabioscience Co
T1 sequence (O60674 whole entry): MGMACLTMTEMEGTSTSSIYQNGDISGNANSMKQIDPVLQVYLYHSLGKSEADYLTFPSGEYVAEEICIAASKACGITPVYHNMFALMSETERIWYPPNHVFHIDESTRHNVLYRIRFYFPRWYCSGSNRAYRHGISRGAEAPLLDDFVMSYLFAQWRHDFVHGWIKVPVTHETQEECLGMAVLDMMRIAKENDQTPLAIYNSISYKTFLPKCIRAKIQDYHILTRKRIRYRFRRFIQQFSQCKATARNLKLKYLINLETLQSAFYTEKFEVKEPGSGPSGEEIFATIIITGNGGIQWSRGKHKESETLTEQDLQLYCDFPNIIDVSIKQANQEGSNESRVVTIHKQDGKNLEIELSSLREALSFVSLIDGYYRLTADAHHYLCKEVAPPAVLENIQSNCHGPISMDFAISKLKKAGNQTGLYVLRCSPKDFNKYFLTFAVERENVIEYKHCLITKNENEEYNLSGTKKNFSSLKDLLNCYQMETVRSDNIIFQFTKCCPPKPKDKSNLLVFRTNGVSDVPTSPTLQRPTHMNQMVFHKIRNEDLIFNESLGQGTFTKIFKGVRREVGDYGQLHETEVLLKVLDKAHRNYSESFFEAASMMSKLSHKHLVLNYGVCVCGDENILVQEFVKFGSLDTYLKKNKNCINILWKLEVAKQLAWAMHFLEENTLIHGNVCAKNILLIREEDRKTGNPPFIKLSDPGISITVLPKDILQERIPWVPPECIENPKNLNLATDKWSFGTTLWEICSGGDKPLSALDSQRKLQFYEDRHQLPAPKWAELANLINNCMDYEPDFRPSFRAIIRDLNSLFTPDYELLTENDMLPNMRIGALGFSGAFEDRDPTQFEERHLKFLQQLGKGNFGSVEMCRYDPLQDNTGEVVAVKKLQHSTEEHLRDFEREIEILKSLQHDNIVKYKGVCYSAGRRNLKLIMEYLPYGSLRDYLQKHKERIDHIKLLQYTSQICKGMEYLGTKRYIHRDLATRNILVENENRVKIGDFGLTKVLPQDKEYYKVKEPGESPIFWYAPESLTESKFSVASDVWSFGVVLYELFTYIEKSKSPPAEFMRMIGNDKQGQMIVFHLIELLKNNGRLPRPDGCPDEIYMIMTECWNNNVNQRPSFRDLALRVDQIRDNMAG
How it was run: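 This is an ELISA read at A450 (HRP anti-phosphotyrosine antibody, TMB) of biotin-peptide phosphorylation captured on streptavidin. Enzyme solution was 0.75 nM JAK2, and the substrate solution was 625 nM peptide with 25 μM ATP in Tris pH 7.5 buffer. The reaction ran 1 h at 30 °C with compounds in duplicate, and IC50 was fitted non-linearly.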

JAK3 tyrosine kinase = biological target: T2, JAK3 tyrosine kinase (Homo sapiens, UniProt P52333); assay: Test 1: inhibitory activity to JAK3 tyrosine kinase (ELISA); type: biochemical; details: 25 μM ATP in substrate solution, 30° C. for 1 hour, n=2
T2 construct: purchased Carnabioscience Co
T2 sequence (P52333 1-1124): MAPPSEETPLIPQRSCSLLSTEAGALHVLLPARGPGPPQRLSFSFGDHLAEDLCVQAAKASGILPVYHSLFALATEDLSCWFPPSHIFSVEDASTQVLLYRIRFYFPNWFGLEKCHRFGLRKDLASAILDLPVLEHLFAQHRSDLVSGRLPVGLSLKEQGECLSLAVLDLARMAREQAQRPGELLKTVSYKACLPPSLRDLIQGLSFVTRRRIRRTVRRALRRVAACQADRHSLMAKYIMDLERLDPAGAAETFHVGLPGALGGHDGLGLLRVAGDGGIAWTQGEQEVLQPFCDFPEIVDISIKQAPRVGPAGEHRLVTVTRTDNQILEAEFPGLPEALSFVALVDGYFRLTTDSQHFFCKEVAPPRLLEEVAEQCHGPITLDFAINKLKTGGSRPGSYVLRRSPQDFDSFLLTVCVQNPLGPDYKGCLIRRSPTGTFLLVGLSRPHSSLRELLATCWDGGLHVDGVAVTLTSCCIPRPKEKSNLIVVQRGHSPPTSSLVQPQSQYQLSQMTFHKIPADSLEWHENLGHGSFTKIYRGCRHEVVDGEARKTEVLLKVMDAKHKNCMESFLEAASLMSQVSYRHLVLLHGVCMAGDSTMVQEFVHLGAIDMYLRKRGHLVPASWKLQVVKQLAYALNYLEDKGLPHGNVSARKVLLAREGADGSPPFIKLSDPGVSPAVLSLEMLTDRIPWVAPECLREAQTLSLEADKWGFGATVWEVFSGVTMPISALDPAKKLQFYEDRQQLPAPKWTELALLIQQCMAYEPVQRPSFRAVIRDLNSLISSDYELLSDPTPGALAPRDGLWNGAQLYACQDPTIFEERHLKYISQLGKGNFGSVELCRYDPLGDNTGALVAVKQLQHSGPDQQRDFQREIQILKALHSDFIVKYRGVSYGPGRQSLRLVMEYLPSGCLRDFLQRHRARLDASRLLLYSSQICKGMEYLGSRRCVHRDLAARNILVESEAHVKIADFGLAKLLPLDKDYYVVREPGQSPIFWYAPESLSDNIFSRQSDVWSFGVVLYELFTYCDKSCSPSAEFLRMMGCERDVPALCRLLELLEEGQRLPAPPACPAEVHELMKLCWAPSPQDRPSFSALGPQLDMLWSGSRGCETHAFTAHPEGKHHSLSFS
How it was run: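 ELISA of JAK3 kinase activity with absorbance read at 450 nm. Compounds were tested from DMSO dilution series at 100-fold the measurement concentrations (1000–0.01 μM), diluted up to 20 times in assay buffer, against a DMSO negative control. IC50 was estimated by non-linear regression of absorbance.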

| Compound | IC50 (JAK2 tyrosine kinase) [nM] | IC50 (JAK3 tyrosine kinase) [nM] |
| --- | --- | --- |
| C[C@H](Nc1cc(C(=O)NCC(F)(F)F)cc(Nc2cnccn2)n1)c1ccc(F)cc1 [Example 171, (S)-2-[1-(4-Fluorophenyl)ethylamino]-6-(pyrazin-2-ylamino)-N-(2,2,2-trifluoroethyl) isonicotinamide] | 1.9 | 570 |
| C[C@H](Nc1cc(N2CC(C)(O)C2)cc(Nc2cnccn2)n1)c1ccc(F)cc1 [Example 205, (S)-1-{2-[1-(4-Fluorophenyl)ethylamino]-6-(pyrazin-2-ylamino)pyridin-4-yl}-3-methylazetidin-3-ol hydrochloride] | 2.8 | 170 |
| C[C@H](Nc1nc(Nc2cnccn2)cc(-c2ccoc2)n1)c1ccc(F)cc1 [Example 82, (S)—N^2-[1-(4-Fluorophenyl)ethyl]-6-(furan-3-yl)-N^4-(pyrazin-2-yl)pyrimidine-2,4-diamine hydrochloride] | 1.7 | 99 |
| C[C@H](Nc1nc(Nc2cnccn2)cc(-c2ccc(C#N)nc2)n1)c1ccc(F)cc1 [Example 55, (S)-5-{2-[1-(4-Fluorophenyl)ethylamino]-6-(pyrazin-2-ylamino)pyrimidin-4-yl}picolinonitrile] | 2 | 190 |
| C[C@H](Nc1nc(Nc2cnccn2)cc(N2C[C@H](O)CC2=O)n1)c1ccc(F)cc1 [Example 67, (R)-1-{2-[(S)-1-(4-Fluorophenyl)ethylamino]-6-(pyrazin-2-ylamino)pyrimidin-4-yl}-4-hydroxypyrrolidin-2-one] | 11 | 470 |
| C[C@H](Nc1cc(N2CC(N3CCC(O)CC3)C2)cc(Nc2cnccn2)n1)c1ccc(F)cc1 [Example 234, (S)-1-(1-{2-[1-(4-Fluorophenyl)ethylamino]-6-(pyrazin-2-ylamino)pyridin-4-yl}azetidin-3-yl)piperidin-4-ol] | 5.4 | 170 |
| C[C@H](Nc1nc(Nc2cnccn2)cc(-c2ccnc(O)c2)n1)c1ccc(F)cc1 [Example 25, (S)-4-{2-[1-(4-Fluorophenyl)ethylamino]-6-(pyrazin-2-ylamino)pyrimidin-4-yl}pyridin-2-ol] | 0.97 | 100 |
| C[C@H](Nc1nc(Nc2cnccn2)cc(N2CCN(S(=O)(=O)c3ccccc3)CC2)n1)c1ccc(F)cc1 [Example 114, (S)—N^2-[1-(4-Fluorophenyl)ethyl]-6-[4-(phenylsulfonyl)piperazin-1-yl]-N^4-(pyrazin-2-yl)pyrimidine-2,4-diamine hydrochloride] | 4.8 | 66 |
| C[C@H](Nc1nc(Nc2cnccn2)cc(N2CC(C(=O)N3CCOCC3)C2)n1)c1ccc(F)cc1 [Example 196, (S)-(1-{2-[1-(4-Fluorophenyl)ethylamino]-6-(pyrazin-2-ylamino)pyrimidin-4-yl}azetidin-3-yl) (morpholino) methanone] | 0.64 | 35 |
| C[C@H](Nc1nc(Nc2cnccn2)cc(N[C@H](CO)c2ccccc2)n1)c1ccc(F)cc1 [Example 86, (S)-2-{2-[(S)-1-(4-Fluorophenyl)ethylamino]-6-(pyrazin-2-ylamino)pyrimidin-4-ylamino}-2-phenylethanol] | 2.4 | 87 |
| CCOC(=O)C1CCN(c2cc(Nc3cnccn3)nc(N[C@@H](C)c3ccc(F)cc3)n2)CC1 [Example 83, Ethyl (S)-1-{2-[1-(4-fluorophenyl)ethylamino]-6-(pyrazin-2-ylamino)pyrimidin-4-yl}piperidin-4-carboxylate] | 3.7 | 58 |
| C[C@H](Nc1nc(NCc2cccnc2)cc(Nc2cnccn2)n1)c1ccc(F)cc1 [Example 107, (S)—N^2-[1-(4-Fluorophenyl)ethyl]-N^4-(pyrazin-2-yl)-N^6-(pyridin-3-ylmethyl)pyrimidine-2,4,6-triamine] | 0.77 | 56 |
| Cc1cn(-c2cc(Nc3cnccn3)nc(N[C@@H](C)c3ccc(F)cc3)n2)cn1 [Example 118, (S)—N^2-[1-(4-Fluorophenyl)ethyl]-6-(4-methyl-1H-imidazol-1-yl)-N^4-(pyrazin-2-yl)pyrimidine-2,4-diamine hydrochloride] | 1.6 | 290 |
| C[C@H](Nc1nc(Nc2cnccn2)cc(-c2ccc(S(C)(=O)=O)cc2)n1)c1ccc(F)cc1 [Example 10, (S)—N^2-[1-(4-Fluorophenyl)ethyl]-6-[4-(methylsulfonyl)phenyl]-N^4-(pyrazin-2-yl)pyrimidine-2,4-diamine hydrochloride] | 0.89 | 95 |
| C[C@H](Nc1nc(Nc2cnccn2)cc(-c2cc[nH]n2)n1)c1ccc(F)cc1 [Example 24, (S)—N^2-[1-(4-Fluorophenyl)ethyl]-N^4-(pyrazin-2-yl)-6-(1H-pyrazol-3-yl)pyrimidine-2,4-diamine hydrochloride] | 1.1 | 53 |
| C[C@H](Nc1nc(Nc2cnccn2)cc(N2CCCC(C(N)=O)C2)n1)c1ccc(F)cc1 (stereo partly drawn) [Example 63, 1-{2-[(S)-1-(4-Fluorophenyl)ethylamino]-6-(pyrazin-2-ylamino)pyrimidin-4-yl}piperidin-3-carboxamide hydrochloride] | 1 | 36 |
| C[C@H](Nc1cc(NC(N)=O)cc(Nc2cnccn2)n1)c1ccc(F)cc1 [Example 210, (S)-1-[2-[1-(4-Fluorophenyl)ethylamino]-6-(pyrazin-2-ylamino)pyridin-4-yl]urea] | 3.2 | 180 |
| C[C@H](Nc1nc(Nc2cnccn2)cc(-c2cncnc2)n1)c1ccc(F)cc1 [Example 52, (S)—N^2-[1-(4-Fluorophenyl)ethyl]-N^6-(pyrazin-2-yl)-4,5′-bipyrimidine-2,6-diamine] | 2 | 160 |
| Cn1cc(-c2cc(Nc3cnccn3)nc(NC(CO)c3ccc(F)cc3)c2)cn1 (centres unmarked) [Example 179, 2-(4-Fluorophenyl)-2-[4-(1-methyl-1H-pyrazol-4-yl)-6-(pyrazin-2-ylamino)pyridin-2-ylamino]ethanol] | 2.6 | 330 |
| C[C@H](Nc1nc(NCCN(C)C)cc(Nc2cnccn2)n1)c1ccc(F)cc1 [Example 62, (S)—N^4-[2-(Dimethylamino)ethyl]-N^2-[1-(4-fluorophenyl)ethyl]-N^6-(pyrazin-2-yl)pyrimidine-2,4,6-triamine dihydrochloride] | 2.2 | 65 |
| C[C@H](Nc1cc(-c2cnn(C3CC3)c2)cc(Nc2cnccn2)n1)c1ccc(F)cc1 [Example 218, (S)-4-(1-Cyclopropyl-1H-pyrazol-4-yl)-N^2-[1-(4-fluorophenyl)ethyl]-N^6-(pyrazin-2-yl)pyridine-2,6-diamine] | 2.2 | 85 |
| C[C@H](Nc1nc(Nc2cnccn2)cc(N(CCO)CCO)n1)c1ccc(F)cc1 [Example 61, (S)-2-({2-[1-(4-Fluorophenyl)ethylamino]-6-(pyrazin-2-ylamino)pyrimidin-4-yl}(2-hydroxyethyl)amino)ethan-1-ol hydrochloride] | 6 | 150 |
| C[C@H](Nc1nc(Nc2cnccn2)cc(-c2ccncc2)n1)c1ccc(F)cc1 [Example 15, (S)—N^2-[1-(4-Fluorophenyl)ethyl]-N^4-(pyrazin-2-yl)-6-(pyridin-4-yl)pyrimidine-2,4-diamine] | 1.3 | 72 |
| C[C@H](Nc1nc(Nc2cnccn2)cc(N2CC(C#N)C2)n1)c1ccc(F)cc1 [Example 178, (S)-1-{2-[1-(4-Fluorophenyl)ethylamino]-6-(pyrazin-2-ylamino)pyrimidin-4-yl}azetidine-3-carbonitrile] | 1 | 82 |
| C[C@H](Nc1cc(-c2cnco2)cc(Nc2cnccn2)n1)c1ccc(F)cc1 [Example 8, (S)—N^2-[1-(4-Fluorophenyl)ethyl]-4-(oxazol-5-yl)-N^6-(pyrazin-2-yl)pyridine-2,6-diamine] | 1.1 | 82 |
